Results reported in patent publication US7361349B2, “Peptide, immunogenic composition and vaccine or medical preparation, a method to immunize animals against the hormone LHRH, and analogs of the LHRH tandem repeat peptide and their use as vaccine” (Pepscan Systems B.V., priority 1996, dated 2008).
“Also recorded” adds a separate entry of the source. Non-standard residues stand in square brackets, D forms with d. pGlu = O=C1CC[C@@H](C(=O)O)N1

Key:
Male piglets = assay: Immunocastration of pigs: testis size and testis weight after immunization; type: in vivo, pig; conditions: for testis weight (g) (median (range)) / number responders/total number: Table 2; for testis weight (g) (median (range)): after slaughter at 13 wpv; for number responders/total number: effectiveness according to testis weight; for testis weight (median range): Table 3; for animals that did not respond to the immunization: number of animals per group of 7
Method: Male piglets, approximately 10 weeks of age, were involved in this experiment. The crossbred piglets were housed in half-slatted pens and were given ad libitum access to feed and water.
The piglets were randomly assigned to the treatments, 6 or 7 piglets per treatment. All animals were injected with 2 ml emulsion containing the dimerized tandem GnRH conjugates (i.e., […] peptide) or an emulsion without antigen. Injections were administered intramuscularly in the neck at the start of the experiment (day 0) and 7 weeks later (7 wpv). Thirteen weeks after initial immunization (13 wpv) all animals were slaughtered.
Animals were weighed at day 0 and 7 and 13 wpv. Testis sizes were determined by measuring testis length with Vernier calipers at day 0, and 7, 10 and 13 weeks thereafter. Testis sizes were recorded as average of both testicles.
After slaughter testes were removed, dissected free of epididymes and weighed. Testes weights were recorded as average of both testicles.

[1] = tested on: peptides used for immunization; assay: Peptide antibodies ELISA of antisera; type: in vivo, pig; conditions: for anti peptide titer at 10 wpv: Table 3, mean titer against the peptide used for immunization
Method: Antibodies to the peptides used for immunization were determined with an ELISA. Peptides were coated in the wells of a microtitreplate using glutardialdehyde (GDA). GDA was coated to the surface of the wells by incubation with 0.2% GDA in 0.1 M phosphate buffer (pH 5) for 4 hours at room temperature. Plates were rinsed 3 times for 10 minutes with 0.1 M phosphate buffer (pH 8). One microgram peptide in […] phosphate buffer (0.1 M, pH 8) was coated per well by incubating for 3 hours at 37° C. Plates were stored at −20° C. until used. Thawed plates were rinsed 3 times for 10 minutes with milli Q water containing 8.2 g NaCl, 1.15 g Na2HPO4.2H2O, 0.20 g NaH2PO4.2H2O and 5 ml of a 10% Tween 80 solution in water per liter water.
Serial serum dilutions of the antipeptide sera were allowed to react with the coated peptides for 1 hour at 25° C. After rinsing 3 times for 10 minutes, goat-anti-pig IgG coupled to horseradish peroxidase (Dako, Glastrup, Denmark) was introduced as second antibody for 1 hour and ABTS (Boehringer, Mannheim, Germany) (([…] (2 g/100 ml) in 10 ml substrate buffer to which […] H2O2 (3% solution)) was used as substrate. Absorption was measured at 405 nm.

^125I-GnRH = assay: GnRH antibodies: binding of pig antisera to 125I-GnRH; type: in vivo; conditions: for GnRH binding (average): Table 3, GnRH antibody binding percentage of 125I-GnRH, average per treatment
Method: Antibodies to GnRH were determined as described by Meloen et al. (Vaccine 12, 741-746 (1994)). Serial dilutions of the pig antisera were allowed to bind to ^125I-GnRH. Titers are expressed as percentage binding of ^125I-GnRH at a given serum dilution.
(§1) Serum samples of the 10 wpv bleeding (3 weeks post booster immunization) were diluted 1/10000 in PBS with 0.4% BSA (dilution buffer). Fifty μl serum dilution was put in microwell plates and 25 μl peptide solution (0, 0.25, 2.5 or 25 pmol peptide in dilution buffer per well) was added. This mixture was allowed to incubate for 24 hours at 4° C. The next day, 25 μl iodinated GnRH (approximately 13000 cpm) was added and after overnight storage (4° C.) unbound peptide was separated from bound peptide with charcoal. After centrifugation, supernatant was separated, counted and the percentage of iodinated GnRH bound to the antibodies was calculated.

testosterone = assay: Testosterone levels in serum (Coat-a-Count kit); type: in vivo, pig; conditions: for testosterone (pmol/ml) at 13 wpv median (range): Table 3, serum, n.d. = not detectable; for testosterone level (in words): after immunization
Method: Blood samples were taken via puncture of the vena jugularis on the same days testis sizes were measured, and also 4 weeks after the initial immunization. Blood samples were kept overnight at 4° C. and the next day serum was obtained by centrifugation (1500 g, 15 min). Serum samples were stored at −20° C. until assayed.
Testosterone levels in serum were determined using a Coat-a-Count kit purchased from DPC laboratories, Los Angeles, Calif.

GnRH-II = assay: GnRH antibody binding competitive radioimmunoassay, competition by GnRH-II; set-up: species or system pig; conditions: for sera with reduced binding to iodinated GnRH after competition by GnRH-II / binding of antibodies to GnRH-II: 10 wpv sera; for sera with reduced binding to iodinated GnRH after competition by GnRH-II / animals whose 10 wpv sera did not bind to GnRH-II: 1/10000 dilution; for sera with reduced binding to iodinated GnRH after competition by GnRH-II: share of sera per treatment; for binding of antibodies to GnRH-II: substantially all animals of the group; for animals whose 10 wpv sera did not bind to GnRH-II: 25 pmol peptide per well
Method: To determine whether antibodies raised by the GnRH vaccines according to the present invention discriminated between GnRH-I and GnRH-II, a GnRH antibody binding assay was performed in order to determine whether antibodies rose against GnRH-I-tandem dimer peptide or its alanine replacement analogs bind to GnRH-II or lack binding to GnRH-II. Serum dilutions were preincubated with either GnRH-I, GnRH-II, a control peptide, or no peptide. Next, iodinated GnRH-I was added to compete with the preincubated peptides for binding to the antibodies.
A GnRH antibody binding competitive radioimmunoassay was performed in order to determine whether antibodies raised against G6k-GnRH-tandem (SEQ ID NO: 9) dimer peptide or its alanine replacement analogs bind to GnRH-II or lack binding to GnRH-II. Serum dilutions were preincubated with either GnRH-I, GnRH-II, a control peptide or no peptide. Next, iodinated GnRH-I was added to compete with the preincubated peptides for binding to the antibodies.
This procedure was performed for serum collected before and after booster immunization, as specificity of the antibodies may increase after booster immunization due to antibody maturation.
as §1
Antibodies collected after the first immunization (7 wpv) were tested in a 1/2000 serum dilution and only one peptide dilution was tested (25 pmol/well).

[2] = 7 wpv (before booster), 1/2000 dilution, 25 pmol/well

Substance | testes weight (in words) (Male piglets) | testis weight (g) (median (range)) (Male piglets) | number responders/total number (Male piglets) | testis weight (median range) (Male piglets) | anti peptide titer at 10 wpv [1] | GnRH binding (average) (^125I-GnRH) | testosterone (pmol/ml) at 13 wpv median (range) (testosterone) | testosterone level (in words) (testosterone) | sera with reduced binding to iodinated GnRH after competition by GnRH-II (GnRH-II) | animals that did not respond to the immunization (Male piglets) | antibody titers against the peptides used for immunization (in words) [1] | animals whose prebooster sera showed binding to GnRH-II (GnRH-II; [2]) | binding of antibodies to GnRH-II (GnRH-II) | animals whose 10 wpv sera did not bind to GnRH-II (GnRH-II) | prebooster sera with no binding to iodinated GnRH (^125I-GnRH; 7 wpv (before booster), 1/2000 dilution) | prebooster sera that did not recognize GnRH-II (GnRH-II; [2])
G10A-G6k-GnRH-tandem ([pGlu]HWSY[dK]LRPAQHWSY[dK]LRPAC-NH2; also: dimerized through Cys 21) | low testes weight | 14 (11-39) g | 7/7 | 14 (11-39) | 3.19 | 17.6% | n.d. (n.d.) | undetectable testosterone levels; also recorded: low testosterone level | all sera | – | – | – | – | – | – | –
L7A-G6k-GnRH-tandem ([pGlu]HWSY[dK]ARPGQHWSY[dK]ARPGC-NH2; also: dimer via Cys21) | – | 20 (12-195) g | 6/7 | 20 (12-195) | 3.52 | 17.6% | – | – | half of the sera | 1 | – | – | – | – | – | –
P9A-G6k-GnRH-tandem-dimer conjugate ([pGlu]HWSY[dK]LRAGQHWSY[dK]LRAGC-NH2; also: dimerized through Cys 21, ovalbumin conjugate) | – | 23 (8-300) g | 6/7 | 23 (8-300) | 2.62 | 15.8% | – | – | most of the sera | 1 | lower than peptide antibody titers of other treatments | – | – | – | – | –
R8A-G6k-GnRH-tandem ([pGlu]HWSY[dK]LAPGQHWSY[dK]LAPGC-NH2; also: dimer via Cys21) | low testes weight | 15 (10-19) g | 7/7 | 15 (10-19) | 3.34 | 17.7% | n.d. (n.d.) | undetectable testosterone levels; also recorded: low testosterone level | all sera | – | – | – | – | – | – | –
S4A-G6k-GnRH-tandem ([pGlu]HWAY[dK]LRPGQHWAY[dK]LRPGC-NH2; also: dimer via Cys21) | effective in terms of low testes weights; also recorded: low testes weight | 36 (10-69) g | 7/7 | 36 (10-69) | 3.19 | 16.9% | n.d. (n.d.) | undetectable testosterone levels; also recorded: low testosterone level | – | – | – | all animals | completely lacked binding to GnRH-II | 6 out of 7 | – | –
Y5A-G6k-GnRH-tandem ([pGlu]HWSA[dK]LRPGQHWSA[dK]LRPGC-NH2; also: dimer via Cys21) | – | 44 (15-235) g | 5/7 | 44 (15-235) | 2.92 | 11.3% | – | – | half of the sera | 2 | – | – | – | – | – | –
pE1A-G6k-GnRH-tandem-dimer OVA conjugate (Ac-AHWSY[dK]LRPGAHWSY[dK]LRPGC-NH2; also: dimerized through Cys 21, ovalbumin conjugate) | effective in terms of low testes weights | 36 (16-65) g | 7/7 | 36 (16-65) | 3.24 | 15.7% | – | – | – | – | – | 4 out of 7 | completely lacked binding to GnRH-II | 6 out of 7 | one | Two
